According to patent US9399626B2, “2-thiopyrimidinones” (Pfizer Inc., priority 2011, dated 2016):
Structures can show the parent of a compound that is named as a salt.

Target: T1, MPO (purified from human polynuclear leukocytes) (Homo sapiens, UniProt P05164)
T1 construct: purified from human polynuclear leukocytes; purchased Calbiochem/EMD Biosciences; host or cells: human polynuclear leukocytes (natural source)
Assay: MPO Amplex Red Activity Assay
Assay type: biochemical
Conditions: Table 1, 2 μM H2O2, pH 7.4
In short: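 Potency is given as kinact/KI: kobs values from 600 s progress curves, minus the uninhibited rate, are fit against inhibitor concentration. Reactions use 2 μM H2O2, 30 μM Amplex Red, pH 7.4 phosphate buffer with NaCl, DTPA and 2% DMSO, started with […] human MPO. Readout is resorufin fluorescence, catalase background subtracted.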

T1 sequence (P05164 279-745 limits assumed): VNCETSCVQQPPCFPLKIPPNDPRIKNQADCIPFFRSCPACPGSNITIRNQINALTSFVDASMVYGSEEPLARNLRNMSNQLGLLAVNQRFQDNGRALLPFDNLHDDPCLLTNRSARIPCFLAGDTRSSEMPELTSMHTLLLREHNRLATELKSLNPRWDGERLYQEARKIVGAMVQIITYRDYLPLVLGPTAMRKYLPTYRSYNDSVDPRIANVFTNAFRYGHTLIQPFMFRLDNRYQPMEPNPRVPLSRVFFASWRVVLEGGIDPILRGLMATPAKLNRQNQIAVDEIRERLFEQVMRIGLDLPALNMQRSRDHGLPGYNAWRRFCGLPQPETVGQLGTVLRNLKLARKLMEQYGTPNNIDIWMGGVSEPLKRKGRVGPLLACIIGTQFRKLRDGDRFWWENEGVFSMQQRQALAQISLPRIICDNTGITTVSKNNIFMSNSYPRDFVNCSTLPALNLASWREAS
T1 sequence (P05164 165-273 limits assumed): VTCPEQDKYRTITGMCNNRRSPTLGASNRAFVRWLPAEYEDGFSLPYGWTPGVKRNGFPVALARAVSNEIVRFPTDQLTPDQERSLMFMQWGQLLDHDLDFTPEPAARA

| Structure (SMILES) | MPO kinact/Ki |
| --- | --- |
| COc1ccc(-c2cc(=O)[nH]c(=S)n2CCCN)c(Cl)c1 [Example 91, 1-(3-aminopropyl)-6-(2-chloro-4-methoxyphenyl)-2-thioxo-2,3-dihydropyrimidin-4(1H)-one hydrochloride] | 9360 1/s per M |
| COc1ccc(Cl)cc1-c1cc(=O)[nH]c(=S)n1CCCN [Example 92, 1-(3-aminopropyl)-6-(5-chloro-2-methoxyphenyl)-2-thioxo-2,3-dihydropyrimidin-4(1H)-one hydrochloride] | 22100 1/s per M |
| COc1ncc(Cl)cc1-c1cc(=O)[nH]c(=S)n1CCCN [Example 93, 1-(3-aminopropyl)-6-(5-chloro-2-methoxypyridin-3-yl)-2-thioxo-2,3-dihydropyrimidin-4(1H)-one hydrochloride] | 5120 1/s per M |
| COc1ccc(Cl)cc1-c1cc(=O)[nH]c(=S)n1CCCO [Example 94, 6-(5-chloro-2-methoxyphenyl)-1-(3-hydroxypropyl)-2-thioxo-2,3-dihydropyrimidin-4(1H)-one] | 6930 1/s per M |
| COc1cc2ccccc2cc1-c1cc(=O)[nH]c(=S)n1CCN [Example 95, 1-(2-aminoethyl)-6-(3-methoxy-2-naphthyl)-2-thioxo-2,3-dihydropyrimidin-4(1H)-one hydrochloride] | 15400 1/s per M |
| COCCn1c(-c2cc(Cl)cnc2OC)cc(=O)[nH]c1=S [Example 96, 6-(5-chloro-2-methoxypyridin-3-yl)-1-(2-methoxyethyl)-2-thioxo-2,3-dihydropyrimidin-4(1H)-one] | 2200 1/s per M |
| COc1nc2ccccc2cc1-c1cc(=O)[nH]c(=S)n1CCN [Example 97, 1-(2-aminoethyl)-6-(2-methoxyquinolin-3-yl)-2-thioxo-2,3-dihydropyrimidin-4(1H)-one trifluoroacetate] | 6310 1/s per M |
| NCCCn1c(-c2ccccc2-n2nccn2)cc(=O)[nH]c1=S [Example 98, 1-(3-aminopropyl)-2-thioxo-6-[2-(2H-1,2,3-triazol-2-yl)phenyl]-2,3-dihydropyrimidin-4(1H)-one hydrochloride] | 1870 1/s per M |
| NC(=O)Cn1c(-c2ccccc2-n2nccn2)cc(=O)[nH]c1=S [Example 99, 2-{4-oxo-2-thioxo-6-[2-(2H-1,2,3-triazol-2-yl)phenyl]-3,4-dihydropyrimidin-1(2H)-yl}acetamide] | 2920 1/s per M |
| COc1cc2ccccc2cc1-c1cc(=O)[nH]c(=S)n1CCO [Example 100, 1-(2-hydroxyethyl)-6-(3-methoxy-2-naphthyl)-2-thioxo-2,3-dihydropyrimidin-4(1H)-one] | 16100 1/s per M |
| COCCn1c(-c2ccccc2-n2nccn2)cc(=O)[nH]c1=S [Example 101, 1-(2-methoxyethyl)-2-thioxo-6-[2-(2H-1,2,3-triazol-2-yl)phenyl]-2,3-dihydropyrimidin-4(1H)-one] | 4140 1/s per M |
| CCOc1ccccc1-c1cc(=O)[nH]c(=S)n1CC1CCCO1 (stereo not drawn) [Example 102, 6-(2-ethoxyphenyl)-1-(tetrahydrofuran-2-ylmethyl)-2-thioxo-2,3-dihydropyrimidin-4(1H)-one] | 4200 1/s per M |
| COc1ccccc1-c1cc(=O)[nH]c(=S)n1CCCN=C(N)N [Example 103, 2-{3-[6-(2-methoxyphenyl)-4-oxo-2-thioxo-3,4-dihydropyrimidin-1(2H)-yl]propyl} guanidine] | 41800 1/s per M |
| CCOc1ccccc1-c1cc(=O)[nH]c(=S)n1CCOC(C)C [Example 104, 6-(2-ethoxyphenyl)-1-(2-isopropoxyethyl)-2-thioxo-2,3-dihydropyrimidin-4(1H)-one] | 1210 1/s per M |
| COc1cc(OC)c(-c2cc(=O)[nH]c(=S)n2CCCN)cc1C [Example 105, 1-(3-aminopropyl)-6-(2,4-dimethoxy-5-methylphenyl)-2-thioxo-2,3-dihydropyrimidin-4(1H)-one hydrochloride] | 27300 1/s per M |
| COc1cc(-c2cc(=O)[nH]c(=S)n2CCCN)c(OC)cc1C [Example 106, 1-(3-aminopropyl)-6-(2,5-dimethoxy-4-methylphenyl)-2-thioxo-2,3-dihydropyrimidin-4(1H)-one hydrochloride] | 10500 1/s per M |
| COc1cc(OC)c(-c2cc(=O)[nH]c(=S)n2CC(N)=O)cc1F [Example 107, 2-[6-(5-fluoro-2,4-dimethoxyphenyl)-4-oxo-2-thioxo-3,4-dihydropyrimidin-1(2H)-yl]acetamide] | 1280 1/s per M |
| COc1cc(OC)c(-c2cc(=O)[nH]c(=S)n2CCCN)cc1F [Example 108, 1-(3-aminopropyl)-6-(5-fluoro-2,4-dimethoxyphenyl)-2-thioxo-2,3-dihydropyrimidin-4(1H)-one hydrochloride] | 5800 1/s per M |

| Structure (SMILES) | MPO kinact/Ki |
| --- | --- |
| COCCn1c(-c2cccc(S(C)(=O)=O)c2)cc(=O)[nH]c1=S [Example 109, 1-(2-methoxyethyl)-6-[3-(methylsulfonyl)phenyl]-2-thioxo-2,3-dihydropyrimidin-4(1H)-one] | 914 1/s per M |
| COCCn1c(-c2ccc(S(C)(=O)=O)cc2)cc(=O)[nH]c1=S [Example 110, 1-(2-methoxyethyl)-6-[4-(methylsulfonyl)phenyl]-2-thioxo-2,3-dihydropyrimidin-4(1H)-one] | 864 1/s per M |
| COc1cc(OC)c(-c2cc(=O)[nH]c(=S)n2CCN)cc1Cl [Example 111, 1-(2-aminoethyl)-6-(5-chloro-2,4-dimethoxyphenyl)-2-thioxo-2,3-dihydropyrimidin-4(1H)-one hydrochloride] | 10300 1/s per M |
| COc1cc2ccccc2cc1-c1cc(=O)[nH]c(=S)n1CC(N)=O [Example 112, 2-[6-(3-methoxy-2-naphthyl)-4-oxo-2-thioxo-3,4-dihydropyrimidin-1(2H)-yl]acetamide] | 14900 1/s per M |
| COc1ccc(Cl)cc1-c1cc(=O)[nH]c(=S)n1C[C@@H](O)CN [Example 113, 1-[(2S)-3-amino-2-hydroxypropyl]-6-(5-chloro-2-methoxyphenyl)-2-thioxo-2,3-dihydropyrimidin-4(1H)-one trifluoroacetate] | 25900 1/s per M |
| COc1ccc(Cl)cc1-c1cc(=O)[nH]c(=S)n1C[C@H](O)CN [Example 114, 1-[(2R)-3-amino-2-hydroxypropyl]-6-(5-chloro-2-methoxyphenyl)-2-thioxo-2,3-dihydropyrimidin-4(1H)-one trifluoroacetate] | 9770 1/s per M |
| COCCn1c(-c2ccc3ccccc3c2OC)cc(=O)[nH]c1=S [Example 115, 1-(2-methoxyethyl)-6-(1-methoxy-2-naphthyl)-2-thioxo-2,3-dihydropyrimidin-4(1H)-one] | 4380 1/s per M |
| COc1ccc(Cl)cc1-c1cc(=O)[nH]c(=S)n1C[C@@H](O)CO [Example 116, 6-(5-chloro-2-methoxyphenyl)-1-[(2R)-2,3-dihydroxypropyl]-2-thioxo-2,3-dihydropyrimidin-4(1H)-one] | 9920 1/s per M |
| COCCn1c(-c2cc3ccccc3cc2OC)cc(=O)[nH]c1=S [Example 117, 1-(2-methoxyethyl)-6-(3-methoxy-2-naphthyl)-2-thioxo-2,3-dihydropyrimidin-4(1H)-one] | 11400 1/s per M |
| COCCn1c(-c2ccccc2OC(F)(F)F)cc(=O)[nH]c1=S [Example 118, 1-(2-methoxyethyl)-2-thioxo-6-[2-(trifluoromethoxy)phenyl]-2,3-dihydropyrimidin-4(1H)-one] | 5500 1/s per M |
| COc1ccc(C)cc1-c1cc(=O)[nH]c(=S)n1CCCN=C(N)N [Example 119, 2-{3-[6-(2-methoxy-5-methylphenyl)-4-oxo-2-thioxo-3,4-dihydropyrimidin-1(2H)-yl]propyl} guanidine] | 25600 1/s per M |
| COc1ccc(C)cc1-c1cc(=O)[nH]c(=S)n1CCNC(=O)CN [Example 120, N-{2-[6-(2-methoxy-5-methylphenyl)-4-oxo-2-thioxo-3,4-dihydropyrimidin-1(2H)-yl]ethyl} glycinamide hydrochloride] | 9720 1/s per M |
| COc1ccc(OC)c(-c2cc(=O)[nH]c(=S)n2CCN=C(N)N)c1 [Example 121, 2-{2-[6-(2,5-dimethoxyphenyl)-4-oxo-2-thioxo-3,4-dihydropyrimidin-1(2H)-yl]ethyl}guanidine hydrochloride] | 15800 1/s per M |
| COc1ccc(Cl)cc1-c1cc(=O)[nH]c(=S)n1C[C@H]1CCCN1 [Example 122, 6-(5-chloro-2-methoxyphenyl)-1-[(2R)-pyrrolidin-2-ylmethyl]-2-thioxo-2,3-dihydropyrimidin-4(1H)-one hydrochloride] | 9310 1/s per M |
| COc1ccc(Cl)cc1-c1cc(=O)[nH]c(=S)n1C[C@@H]1CCCN1 [Example 123, 6-(5-chloro-2-methoxyphenyl)-1-[(2S)-pyrrolidin-2-ylmethyl]-2-thioxo-2,3-dihydropyrimidin-4(1H)-one hydrochloride] | 3780 1/s per M |
| COc1cc(OC)c(-c2cc(=O)[nH]c(=S)n2CC(N)=O)cc1OC [Example 124, 2-[4-oxo-2-thioxo-6-(2,4,5-trimethoxyphenyl)-3,4-dihydropyrimidin-1(2H)-yl]acetamide] | 4610 1/s per M |
| COc1cc(OC)c(-c2cc(=O)[nH]c(=S)n2CCCN)cc1OC [Example 125, 1-(3-aminopropyl)-2-thioxo-6-(2,4,5-trimethoxyphenyl)-2,3-dihydropyrimidin-4(1H)-one hydrochloride] | 10600 1/s per M |
| COc1ccc(F)cc1-c1cc(=O)[nH]c(=S)n1CCCN=C(N)N [Example 126, 2-{3-[6-(5-fluoro-2-methoxyphenyl)-4-oxo-2-thioxo-3,4-dihydropyrimidin-1(2H)-yl]propyl} guanidine] | 18200 1/s per M |
